Patent US8703796B2, “3H-imidazo [4, 5-B] pyridine-6-carboxamides as anti-inflammatory agents” (Boehringer Ingelheim International GmbH, priority 2008, dated 2014)

Biological target: T1, recombinant human mPGES-1 (Homo sapiens, UniProt O14684)
T1 construct: made in house; host or cells: Rosetta E. coli (microsomal/membrane fraction)
T1 sequence (O14684 1-152): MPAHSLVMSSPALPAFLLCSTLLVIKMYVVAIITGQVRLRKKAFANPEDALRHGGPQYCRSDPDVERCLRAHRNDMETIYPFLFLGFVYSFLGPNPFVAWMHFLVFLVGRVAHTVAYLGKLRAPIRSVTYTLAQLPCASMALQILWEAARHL
Test: mPGES-1 inhibition, HTRF detection of PGE2
Format: biochemical
Description: Microsomes from Rosetta E. coli bacteria expressing recombinant human mPGES-1 is dissolved in 0.1 M KPi pH 7.4 buffer containing 2.5 mM GSH. 50 μl of the enzyme is subsequently dispensed in a 384-well plate. 0.5 μl of the inhibitor dissolved in DMSO at is thereafter added to each well and incubated for 25 minutes at room temperature. Subsequently, 2 μl of PGH2 dissolved in an appropriate solvent is added to each well and after one minute the acidified stop solution containing FeCl2 is added. 4 μl of the total volume is transferred to a separate plate and diluted 750-fold in two separate steps before HTRF detection of PGE2.
The HTRf detection is performed by the use of a commercially available kit from CisBio essentially according to the manufacturer's protocol. Briefly, 10 μl of the diluted sample is transferred to a white 384-well plate. 5 μl of d2 and 5 μl Eu3+-Cryptate labeled anti-PGE2 is added to each well containing samples by the use of a Multidrop. The plate is covered with a plastic self-adhesive film, centrifuged at 1200 rpm for 1 minute and subsequently stored at +4° C. over night.
After over night incubation the fluorescence is measured by the use of an appropriate microplate reader. The fluorescence of europium cryptate, and d2 are measured using the following excitation and emission wavelength, europium cryptate: λmax^ex=307 nm, λmax^em=620 nm and d2: λmax^ex=620 nm, λmax^em=665 nm), respectively. The extent of the specific FRET is measured as a ratio of the emission intensity at 665 nm vs. that at 620 nm. A standard curve using synthetic PGE2 is used to quantify the amount of PGE2 in unknown samples.

Row | SMILES | inhibition at 10 µM [%] | inhibition at 1 µM [%]
1 | O=C(N[C@H]1CC[C@H](C(F)(F)F)CC1)c1cc2nc(Nc3c(F)cccc3C(F)(F)F)[nH]c2nc1OCC(F)F [Example 781, 2-(2-Fluoro-6-trifluoromethyl-phenylamino)-5-(2,2-difluoro-ethoxy)-N-(trans-4-trifluoromethyl-cyclohexyl)-3H-imidazo[4,5-b]pyridine-6-carboxamide] | – | 99
2 | CCOc1nc2[nH]c(Nc3c(Cl)cncc3Cl)nc2cc1C(=O)Nc1cc(C(F)(F)F)ccn1 [Example 845, 2-(3,5-Dichloro-pyridin-4-ylamino)-5-ethoxy-N-(4-trifluoromethyl-pyridin-2-yl)-3H-imidazo[4,5-b]pyridine-6-carboxamide] | 99 | –
3 | Cn1c(Nc2c(Cl)cc(F)cc2Cl)nc2cc(C(=O)NCC(F)(F)C(F)(F)C(F)(F)C(F)(F)F)c(OCC(F)F)nc21 [Example 872, 2-(2,6-Dichloro-4-fluoro-phenylamino)-5-(2,2-difluoro-ethoxy)-N-(2,2,3,3,4,4,5,5,5-nonafluoropentyl)-3-methyl-3H-imidazo[4,5-b]pyridine-6-carboxamide] | 100 | –
4 | Cn1c(Nc2c(Cl)cncc2Cl)nc2cc(C(=O)NCc3ncccc3C(F)(F)F)c(OCC(F)F)nc21 [Example 841, 2-(3,5-Dichloro-pyridin-4-ylamino)-5-(2,2-difluoro-ethoxy)-N-((3-trifluoromethyl-pyridin-2-yl)-methyl)-3-methyl-3H-imidazo[4,5-b]pyridine-6-carboxamide] | 99 | –
5 | Cn1c(Nc2c(Cl)cc(F)cc2Cl)nc2cc(C(=O)Nc3cc(C(F)(F)F)ccn3)c(OCC(F)F)nc21 [Example 817, 2-(2,6-Dichloro-4-fluoro-phenylamino)-5-(2,2-difluoro-ethoxy)-N-(4-trifluoromethyl-pyridin-2-yl)-3-methyl-3H-imidazo[4,5-b]pyridine-6-carboxamide] | 96 | –
6 | COCCOc1nc2[nH]c(Nc3c(Cl)cncc3Cl)nc2cc1C(=O)Nc1ccc(Br)cc1 [Example 801, 2-(3,5-Dichloro-pyridin-4-ylamino)-5-(2-methoxy-ethoxy)-N-(4-bromo-phenyl)-3H-imidazo[4,5-b]pyridine-6-carboxamide] | 96 | –
7 | Cn1c(Nc2c(F)cccc2Cl)nc2cc(C(=O)N[C@H]3CC[C@H](C(F)(F)F)CC3)c(OCC(F)F)nc21 [Example 783, 2-(2-Chloro-6-fluoro-phenylamino)-5-(2,2-difluoro-ethoxy)-N-(trans-4-trifluoromethyl-cyclohexyl)-3-methyl-3H-imidazo[4,5-b]pyridine-6-carboxamide] | 100 | –
8 | Cn1c(Nc2c(Cl)cncc2Cl)nc2cc(C(=O)N[C@H]3CC[C@H](C(F)(F)F)CC3)c(OCCF)nc21 [Example 833, 2-(3,5-Dichloro-pyridin-4-ylamino)-5-(2-fluoro-ethoxy)-N-(trans-4-trifluoromethyl-cyclohexyl)-3-methyl-3H-imidazo[4,5-b]pyridine-6-carboxamide] | 100 | –
9 | Cn1c(Nc2c(Cl)cc(F)cc2Cl)nc2cc(C(=O)NCc3ccccc3C(F)(F)F)c(OCC(F)F)nc21 [Example 871, 2-(2,6-Dichloro-4-fluoro-phenylamino)-5-(2,2-difluoro-ethoxy)-N-(2-trifluoromethyl-benzyl)-3-methyl-3H-imidazo[4,5-b]pyridine-6-carboxamide] | 100 | –
10 | CCOc1nc2[nH]c(Nc3c(Cl)cncc3Cl)nc2cc1C(=O)N[C@H]1CC[C@H](C(F)(F)F)CC1 [Example 842, 2-(3,5-Dichloro-pyridin-4-ylamino)-5-ethoxy-N-(trans-4-trifluoromethyl-cyclohexyl)-3H-imidazo[4,5-b]pyridine-6-carboxamide] | 92 | –
11 | CC(=O)N(C)CCOc1nc2c(cc1C(=O)NCC(F)(F)C(F)(F)C(F)(F)C(F)(F)F)nc(Nc1c(Cl)cncc1Cl)n2C [Example 811, 2-(3,5-Dichloro-pyridin-4-ylamino)-5-(2-(acetyl-methyl-amino)-ethoxy)-N-(2,2,3,3,4,4,5,5,5-nonafluoro-pentyl)-3-methyl-3H-imidazo[4,5-b]pyridine-6-carboxamide] | – | 94
12 | Cn1c(Nc2c(Cl)cncc2Cl)nc2cc(C(=O)NCc3ncccc3C(F)(F)F)c(OC3CCOC3)nc21 (stereo not shown) [Example 847, 2-(3,5-Dichloro-pyridin-4-ylamino)-5-(tetrahydrofuran-3-yl-oxy)-N-((3-trifluoromethyl-pyridin-2-yl)-methyl)-3-methyl-3H-imidazo[4,5-b]pyridine-6-carboxamide] | 100 | –
13 | Cn1c(Nc2cnccc2C(F)(F)F)nc2cc(C(=O)N[C@H]3CC[C@H](C(F)(F)F)CC3)c(OCC(F)F)nc21 [Example 789, 2-(4-Trifluoromethyl-pyridin-3-ylamino)-5-(2,2-difluoro-ethoxy)-N-(trans-4-trifluoromethyl-cyclohexyl)-3-methyl-3H-imidazo[4,5-b]pyridine-6-carboxamide] | 95 | –
14 | Cn1c(Nc2c(Cl)cc(F)cc2Cl)nc2cc(C(=O)Nc3ccc(Br)cc3)c(OCC(F)(F)F)nc21 [Example 816, 2-(2,6-Dichloro-4-fluoro-phenylamino)-5-(2,2,2-trifluoro-ethoxy)-N-(4-bromo-phenyl)-3-methyl-3H-imidazo[4,5-b]pyridine-6-carboxamide] | 97 | –
15 | Cn1c(Nc2c(Cl)cc(F)cc2Cl)nc2cc(C(=O)NCC(F)(F)C(F)(F)C(F)(F)C(F)(F)F)c(OCC(F)(F)F)nc21 [Example 873, 2-(2,6-Dichloro-4-fluoro-phenylamino)-5-(2,2,2-trifluoro-ethoxy)-N-(2,2,3,3,4,4,5,5,5-nonafluoropentyl)-3-methyl-3H-imidazo[4,5-b]pyridine-6-carboxamide] | 100 | –

Results, then the compound that gave them:

Row | inhibition at 10 µM [%] | inhibition at 1 µM [%] | SMILES
16 | 96 | – | CC(=O)N(C)CCOc1nc2c(cc1C(=O)Nc1ccc(Br)cc1)nc(Nc1c(Cl)cncc1Cl)n2C [Example 810, 2-(3,5-Dichloro-pyridin-4-ylamino)-5-(2-(acetyl-methyl-amino)-ethoxy)-N-(4-bromo-phenyl)-3-methyl-3H-imidazo[4,5-b]pyridine-6-carboxamide]
17 | 100 | – | CC(C)[C@H]1CC[C@H](NC(=O)c2cnc3[nH]c(Nc4c(Cl)cccc4Cl)nc3c2)CC1 [Example 394, 2-(2,6-Dichlorophenylamino)-N-((1r,4r)-4-isopropylcyclohexyl)-3H-imidazo[4,5-b]pyridine-6-carboxamide]
18 | 98 | – | O=C(NC1CCC2(CC1)CC2)c1cnc2[nH]c(Nc3c(Cl)cccc3Cl)nc2c1 [Example 485, 2-(2,6-Dichlorophenylamino)-N-(spiro[2.5]octan-6-yl)-3H-imidazo[4,5-b]pyridine-6-carboxamide]
19 | – | 100 | Cn1c(Nc2c(F)cccc2Cl)nc2cc(C(=O)Nc3ccc(Br)cc3)c(OCC(F)F)nc21 [Example 773, N-(4-Bromo-phenyl)-2-(2-fluoro-6-chloro-phenylamino)-5-(2,2-difluoroethoxy)-3-methyl-3H-imidazo[4,5-b]pyridine-6-carboxamide]
20 | 100 | – | Cn1c(Nc2c(F)cccc2Cl)nc2cc(C(=O)N[C@H]3CC[C@H](C)CC3)cnc21 [Example 486, 2-(2-Chloro-6-fluorophenylamino)-3-methyl-N-((1r,4r)-4-methycyclohexyl)-3H-imidazo[4,5-b]pyridine-6-carboxamide]
21 | 98 | – | Cn1c(Nc2c(Cl)cncc2Cl)nc2cc(C(=O)NCc3ccccc3C(F)(F)F)c(OCC(F)F)nc21 [Example 839, 2-(3,5-Dichloro-pyridin-4-ylamino)-5-(2,2-difluoro-ethoxy)-N-(2-trifluoromethyl-benzyl)-3-methyl-3H-imidazo[4,5-b]pyridine-6-carboxamide]
22 | 96 | – | CC(C)n1c(Nc2c(F)cccc2Cl)nc2cc(C(=O)NC3CCC(C)(C)CC3)cnc21 [Example 511, 2-(2-Chloro-6-fluorophenylamino)-N-(4,4-dimethylcyclohexyl)-3-isopropyl-3H-imidazo[4,5-b]pyridine-6-carboxamide]
23 | 100 | – | CCCCCCCNC(=O)c1cnc2c(c1)nc(Nc1c(Cl)cccc1Cl)n2C [Example 448, 2-(2,6-Dichlorophenylamino)-N-heptyl-3-methyl-3H-imidazo[4,5-b]pyridine-6-carboxamide]
24 | 98 | – | CCCCC[C@@H](C)NC(=O)c1cnc2c(c1)nc(Nc1c(Cl)cccc1Cl)n2C [Example 449, (R)-2-(2,6-Dichlorophenylamino)-N-(hept-2-yl)-3-methyl-3H-imidazo[4,5-b]pyridine-6-carboxamide]
25 | 97 | – | CC1(C)CCC(NC(=O)c2cnc3[nH]c(Nc4c(Cl)cccc4Cl)nc3c2)CC1 [Example 429, 2-(2,6-Dichlorophenylamino)-N-(4,4-dimethylcyclohexyl)-3H-imidazo[4,5-b]pyridine-6-carboxamide]
